# Laboratory results published in article PMC2150373, “Phase I study of the mitomycin C analogue BMS-181174” (British Journal of Cancer, 1998).
# Read-outs that look alike come from different tables or passages of the source.
# Legend:
# [1] = tested on: histologically proven advanced cancer
# Method: (§1) In a phase I study of 82 patients with confirmed malignancy, we administered BMS-181174 at doses of 0.8-75 mg m-2 by intravenous injection every 28 days. At least three patients were evaluated at each dose level, and 174 courses were administered. […] BMS- 181174, also known as BMY-25067, is a semi-synthetic analogue of MMC created by substitution of the […] amino group by a nitrophenyl disulphide moiety (Figure 1). […] It is not known what form of BMS-181174 enters cells. However, it is possible that, after systemic administration, several forms of the drug in addition to the parent compound may be present, including mixed disulphides with endogenous thiols (such as cysteine, glutathione and methionine), methylated TEMMC and TEMMC disulphide. […] The anti-tumour effects of BMS-1 81174 have been evaluated in vivo (Bradner et al, 1990). […] The selection of the starting dose for the clinical study was based on the toxic low dose (TLD) in the dog.
# [2] = tested on: patients with histologically proven advanced cancer
# Method: as §1
# [3] = preliminary in vitro studies; presumably disulphide exchange with thiols; cited from earlier work
# [4] = tested on: patients with solid tumors; conditions: similar doses given by 6-h infusion; ref Planting et al, 1994; cited from earlier work
# ferrets = conditions: ref Bradner et al, 1990; cited from earlier work
# mice [5] = conditions: respective maximum non-lethal doses in mice; ref Bradner et al, 1990; cited from earlier work
# [6] = tested on: MMC-resistant tumour cell lines; conditions: in vitro, ref Rockwell et al, 1995, cited from earlier work
# dog = conditions: ref Nicaise and Usakewicz, 1989; cited from earlier work
# B 16 melanoma = conditions: drug and tumour both intraperitoneal, or i.v. against subcutaneous tumour; ref Bradner et al, 1990; cited from earlier work
# [7] = tested on: highly MMC-resistant P388; conditions: ref Bradner et al, 1990; cited from earlier work
# [8] = Pharmacokinetics of total TEMMC in plasma (HPLC, non-compartmental)
# Method: as §1
# rats = conditions: of three species tested (mice, rats and dogs) in rats only; ref Bregman et al, 1989; cited from earlier work
# mice [9] = conditions: single intravenous dose, ref Nicaise and Usakewicz, 1989; cited from earlier work
# [10] = tested on: subline of L1210 partly resistant to MMC; conditions: ref Bradner et al, 1990; cited from earlier work
# mice, rats and dogs = conditions: cited from earlier work
# [11] = 65 mg m-2, 12 patients all pretreated with chemotherapy
# [12] = 75 mg m-2, 14 patients with no prior chemotherapy
# [13] = 75 mg m-2, six previously treated patients
structure (smiles),measurement,setting,value
"CO[C@@]12[C@H](COC(N)=O)C3=C(C(=O)C(C)=C(NCCSSc4ccc([N+](=O)[O-])cc4)C3=O)N1C[C@@H]1N[C@@H]12 [BMS-181174, N-7[2-(4-nitrophenyldithio)ethyl] mitomycin C]",partial response rate,[1]; 3 out of 32 patients treated at 65-75 mg m-2,9%
same,treatment discontinued for progressive disease,[1]; 22 out of 32 patients at 65-75 mg m-2,69%
same,treatment discontinued because of progressive disease,[1]; 44 of 50 patients treated at 0.8-50 mg m-2,88%
same,partial response rate,[1]; 50 patients treated at 0.8-50 mg m-2,2%
same,"minor response (MR), no. of patients","[1]; Total, 82 patients",1
same,"partial response (PR), no. of patients","[1]; Total, 82 patients",4
same,"stable disease (SD), no. of patients","[1]; Total, 82 patients",8
same,"progressive disease (PD), no. of patients","[1]; Total, 82 patients (10 not evaluable)",59
same,overall response rate,[1]; all dose levels (discussion),6%
same,partial response rate,"[1]; overall, 4 out of 82 patients, 0.8-75 mg m-2",5%
same,"Thrombophlebitis, worst grade 0, no. of patients","[2]; 65.0 mg m-2, 12 patients",7
same,"Thrombophlebitis, worst grade 1, no. of patients","[2]; 65.0 mg m-2, 12 patients",0
same,"Thrombophlebitis, worst grade 2, no. of patients","[2]; 65.0 mg m-2, 12 patients",4
same,"Thrombophlebitis, worst grade 3, no. of patients","[2]; 65.0 mg m-2, 12 patients",1
same,"Thrombophlebitis, worst grade 4, no. of patients","[2]; 65.0 mg m-2, 12 patients",1
same,"grade 4 anaemia, incidence",[2]; [11],8%
same,"grade 4 thrombocytopenia, incidence",[2]; [11],17%
same,"grade 3-4 anaemia, incidence",[2]; [12],7%
same,"grade 3-4 neutropenia, incidence",[2]; [12],7%
same,"grade 3-4 thrombocytopenia, incidence",[2]; [12],21%
same,patients with grade 4 thrombocytopenia (total),"[2]; 75 mg m-2, 20 patients",eight
same,"Thrombophlebitis, worst grade 0, no. of patients","[2]; 75.0 mg m-2, 20 patients",12
same,"Thrombophlebitis, worst grade 1, no. of patients","[2]; 75.0 mg m-2, 20 patients",0
same,"Thrombophlebitis, worst grade 2, no. of patients","[2]; 75.0 mg m-2, 20 patients",3
same,"Thrombophlebitis, worst grade 3, no. of patients","[2]; 75.0 mg m-2, 20 patients",3
same,"Thrombophlebitis, worst grade 4, no. of patients","[2]; 75.0 mg m-2, 20 patients",2
same,"grade 3-4 anaemia, patients",[2]; [13],none
same,"grade 3-4 neutropenia, incidence",[2]; [13],33%
same,"grade 3-4 thrombocytopenia, incidence",[2]; [13],83%
same,"thrombophlebitis, incidence","[2]; 31 patients treated at 7.5-50 mg m-2, generally grade 1-2",26%
same,"thrombophlebitis of grade 3-4, incidence",[2]; 32 evaluable patients treated at 65-75 mg m-2,22%
same,treatment discontinued because of toxicity,[2]; 32 patients at 65-75 mg m-2,53%
same,"significant reduction in LVEF, incidence","[2]; 62 evaluable patients, all dose levels",15%
same,patients who died suddenly with pneumonia/pneumonitis thought drug-related,[2]; 65-75 mg m-2,Three
same,median nadir times for neutropenia,[2]; 65-75 mg m-2 (discussion),15 to 19 days
same,nadirs for thrombocytopenia (median time),[2]; 65-75 mg m-2 (discussion),16 to 24 days
same,"Haemoglobin, worst WHO grade 1, no. of patients","[2]; 75-T, 6 patients",2
same,"Haemoglobin, worst WHO grade 2, no. of patients","[2]; 75-T, 6 patients",4
same,"Haemoglobin, worst WHO grade 3, no. of patients","[2]; 75-T, 6 patients",0
same,"Haemoglobin, worst WHO grade 4, no. of patients","[2]; 75-T, 6 patients",0
same,"Neutrophils, worst WHO grade 0, no. of patients","[2]; 75-T, 6 patients",1
same,"Neutrophils, worst WHO grade 1, no. of patients","[2]; 75-T, 6 patients",1
same,"Neutrophils, worst WHO grade 2, no. of patients","[2]; 75-T, 6 patients",2
same,"Neutrophils, worst WHO grade 3, no. of patients","[2]; 75-T, 6 patients",2
same,"Neutrophils, worst WHO grade 4, no. of patients","[2]; 75-T, 6 patients",0
same,"Platelets, worst WHO grade 0, no. of patients","[2]; 75-T, 6 patients",1
same,"Platelets, worst WHO grade 1, no. of patients","[2]; 75-T, 6 patients",0
same,"Platelets, worst WHO grade 2, no. of patients","[2]; 75-T, 6 patients",0
same,"Platelets, worst WHO grade 3, no. of patients","[2]; 75-T, 6 patients",2
same,"Platelets, worst WHO grade 4, no. of patients","[2]; 75-T, 6 patients",3
same,"Haemoglobin, worst WHO grade 0, no. of patients","[2]; 75-T: 75 mg m-2, prior chemotherapy, 6 patients",0
same,"Haemoglobin, worst WHO grade 1, no. of patients","[2]; 75-U, 14 patients",3
same,"Haemoglobin, worst WHO grade 2, no. of patients","[2]; 75-U, 14 patients",7
same,"Haemoglobin, worst WHO grade 3, no. of patients","[2]; 75-U, 14 patients",1
same,"Haemoglobin, worst WHO grade 4, no. of patients","[2]; 75-U, 14 patients",0
same,"Neutrophils, worst WHO grade 0, no. of patients","[2]; 75-U, 14 patients",10
same,"Neutrophils, worst WHO grade 1, no. of patients","[2]; 75-U, 14 patients",1
same,"Neutrophils, worst WHO grade 2, no. of patients","[2]; 75-U, 14 patients",2
same,"Neutrophils, worst WHO grade 3, no. of patients","[2]; 75-U, 14 patients",0
same,"Neutrophils, worst WHO grade 4, no. of patients","[2]; 75-U, 14 patients",1
same,"Platelets, worst WHO grade 0, no. of patients","[2]; 75-U, 14 patients",7
same,"Platelets, worst WHO grade 1, no. of patients","[2]; 75-U, 14 patients",1
same,"Platelets, worst WHO grade 2, no. of patients","[2]; 75-U, 14 patients",3
same,"Platelets, worst WHO grade 3, no. of patients","[2]; 75-U, 14 patients",0
same,"Platelets, worst WHO grade 4, no. of patients","[2]; 75-U, 14 patients",3
same,"Haemoglobin, worst WHO grade 0, no. of patients","[2]; 75-U: 75 mg m-2, previously untreated, 14 patients",3
same,"possible renal toxicity (rise in serum creatinine), incidence","[2]; 82 patients, all dose levels",4%
same,possible treatment-related deaths,"[2]; 82 patients, all dose levels",four
same,"grade 1-2 nausea, number of patients","[2]; 82 patients, with prophylactic antiemetics",21
same,"moderate or severe emesis (grade 2-3), number of patients","[2]; 82 patients, thirteen of them treated at 65-75 mg m-2",fifteen
same,"time for platelet counts to recover to normal, median","[2]; after 65 mg m-2, range 21-45 days",25 days
same,"time for granulocyte counts to recover to normal, median","[2]; after 65 mg m-2, range 27-42 days",34.5 days
same,"time for granulocyte counts to recover to normal, median","[2]; after 75 mg m-2, range 19-43",22.5 days
same,"time for platelet counts to recover to normal, median","[2]; after 75 mg m-2, range 20-46",29.5 days
same,"time to nadir blood counts, median",[2]; all dose levels,15 to 22 days
same,maximum-tolerated dose,"[2]; chemotherapy-naive patients, i.v. every 28 days",75 mg m-2
same,"Significant reduction in LVEF, no. of patients","[2]; dose 0.8 mg m-2, 4 patients (3 not evaluable)",0
same,"Significant reduction in LVEF, no. of patients","[2]; dose 1.6 mg m-2, 3 patients (1 not evaluable)",1
same,"Significant reduction in LVEF, no. of patients","[2]; dose 3.2 mg m-2, 7 patients (0 not evaluable)",2
same,"Significant reduction in LVEF, no. of patients","[2]; dose 5.0 mg m-2, 5 patients (1 not evaluable)",1
same,"Significant reduction in LVEF, no. of patients","[2]; dose 7.5 mg m-2, 5 patients (0 not evaluable)",0
same,"Significant reduction in LVEF, no. of patients","[2]; dose 11.5 mg m-2, 7 patients (2 not evaluable)",0
same,"Significant reduction in LVEF, no. of patients","[2]; dose 19 mg m-2, 8 patients (3 not evaluable)",0
same,"Significant reduction in LVEF, no. of patients","[2]; dose 32 mg m-2, 5 patients (1 not evaluable)",1
same,"Significant reduction in LVEF, no. of patients","[2]; dose 50 mg m-2, 6 patients (2 not evaluable)",1
same,"Significant reduction in LVEF, no. of patients","[2]; dose 65 mg m-2, 12 patients (3 not evaluable)",0
same,"Significant reduction in LVEF, no. of patients","[2]; dose 75 mg m-2, 20 patients (4 not evaluable)",3
same,"thrombophlebitis of grades 1-3, incidence","[2]; dose levels 0.8-19 mg m-2, bolus injection",13%
same,dose-limiting toxicity,[2]; i.v. every 28 days,myelosuppression
same,maximum-tolerated dose,"[2]; previously treated patients, i.v. every 28 days",65 mg m-2
same,"significant reduction in LVEF, incidence",[2]; sixteen evaluable patients at 75 mg m-2,19%
same,haematological toxicity (grade >3),[2]; up to 50 mg m-2,no significant
same,disappearance in plasma,[3],rapidly
same,toxicity of 6-h infusion,[4],local venous toxicity with thrombophlebitis and venospasm
same,neutropenia and thrombocytopenia compared with MMC,ferrets,less neutropenic and much less thrombocytopenic
same,neutropenia compared with MMC,mice [5],less neutropenia than MMC
same,toxicity in hypoxic versus aerobic conditions,[6]; unlike MMC,not more toxic in hypoxic than aerobic conditions
same,activity against MMC-resistant tumour cell lines,[6],active
same,toxic low dose (TLD),dog,2.5 mg m-2
same,anti-tumour activity compared with MMC,B 16 melanoma,superior activity
same,anti-tumour activity,[7],inactive
same,plasma levels of TEMMC,"[8]; 0.8 and 1.6 mg m-2 dose levels, assay lower limit of quantitation 50 ng ml-1",not sufficiently sensitive to quantify plasma levels
same,dose linearity of pharmacokinetics,[8]; in vivo,dose linear
same,cardiotoxicity,rats,dose-related cardiotoxicity
same,LD10,mice [9],24.9 mg m-2
same,anti-tumour activity,[10],slight activity
same,preclinical toxicity,"mice, rats and dogs; preclinical testing of MMC analogues, ref Bregman et al, 1989",myelosuppression and proteinuria
same,myelosuppression compared with parent compound MMC,"mice, rats and dogs; preclinical, ref Doyle and Vyas, 1990",marginally less myelosuppressive than the parent compound
